In patent publication US7273880B2, “Selective NPY (Y5) antagonists” (H. Lunbeck A/S, priority 1999, dated 2007):
Structures can show the parent of a compound that is named as a salt.

target: T1, human Y5 receptor (hNPY-5) (Homo sapiens, UniProt Q15761); assay: Radioligand binding to membranes, cloned human Y5 receptor; details: cloned human NPY Y5 receptor, radioligand competition binding; Tables 1-3; read-out: Ki, nM hNPY-5
T1 construct: expressed in transfected cells; host or cells: mouse fibroblast LM(tk-) cells, e.g. L-hY5-7 (ATCC CRL-11995)
T1 sequence (Q15761 1-445): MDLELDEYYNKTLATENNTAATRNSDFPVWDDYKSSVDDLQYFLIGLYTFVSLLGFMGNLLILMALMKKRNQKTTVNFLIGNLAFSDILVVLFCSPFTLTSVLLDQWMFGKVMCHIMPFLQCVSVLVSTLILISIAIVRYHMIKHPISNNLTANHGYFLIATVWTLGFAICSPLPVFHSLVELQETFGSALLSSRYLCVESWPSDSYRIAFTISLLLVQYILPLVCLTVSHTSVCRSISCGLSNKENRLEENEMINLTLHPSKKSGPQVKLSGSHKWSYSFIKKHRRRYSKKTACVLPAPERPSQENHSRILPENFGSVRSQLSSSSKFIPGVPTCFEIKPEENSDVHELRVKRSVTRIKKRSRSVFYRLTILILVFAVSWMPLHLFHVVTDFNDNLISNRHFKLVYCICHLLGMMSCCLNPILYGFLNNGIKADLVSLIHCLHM
Protocol: Binding of the compounds of the present invention to human Y1, Y2, Y4, and Y5 receptors was evaluated using stably transfected 293 or LM(tk-) cells as described above. Stably transfected cell lines which may be used for binding assays include, for example, for the human Y1 receptor, 293-hY1-5 (deposited Jun. 4, 1996, under ATCC Accession No. CRL-12121), for the human Y2 receptor, 293-hY2-10 (deposited Jan. 27, 1994, under ATCC Accession No. CRL-11537), for the human Y4 receptor, L-hY4-3 (deposited Jan. 11, 1995, under ATCC Accession No. CRL-11779), and for human Y5 receptor, L-hY5-7 (deposited Nov. 15, 1995, under ATCC Accession No. CRL-11995). These cell lines were deposited with the American Type Culture Collection (ATCC), 10801 University Blvd., Manassas, Va. 20110-2209, U.S.A. under the provisions of the Budapest Treaty for the International Recognition of the Deposit of Microorganisms for the Purposes of Patent Procedure.
Membranes were harvested from COS-7 cells 48 hours after transient transfection. Adherent cells were washed twice in ice-cold phosphate buffered saline (138 mM NaCl, 8.1 mM Na2HPO4, 2.5 mM KCl, 1.2 mM KH2PO4, 0.9 mM CaCl2, 0.5 mM MgCl2, pH 7.4) and lysed by sonication in ice-cold sonication buffer (20 mM Tris-HCl, 5 mM EDTA, pH 7.7). Large particles and debris were cleared by low speed centrifugation (200×g, 5 min, 4° C.). Membranes were collected from the supernatant fraction by centrifugation (32,000×g, 18 min, 4° C.), washed with ice-cold hypotonic buffer, and collected again by centrifugation (32,000×g, 18 min, 4° C.). The final membrane pellet was resuspended by sonication into a small volume of ice-cold binding buffer (˜1 ml for every 5 plates: 10 mM NaCl, 20 mM HEPES, 0.22 mM KH2PO4, 1.26 mM CaCl2, 0.81 mM MgSO4, pH 7.4). Protein concentration was measured by the Bradford method (Bradford, 1976) using Bio-Rad Reagent, with bovine serum albumin as a standard. Membranes were held on ice for up to one hour and used fresh, or flash-frozen and stored in liquid nitrogen.
Membranes were prepared similarly from 293, LM(tk-), and NIH-3T3 cells. To prepare membranes from baculovirus infected cells, 2×10^7 Sf21 cells were grown in 150 mm tissue culture dishes and infected with a high-titer stock of hY5BB3. Cells were incubated for 2-4 days at 27° C., no CO2 before harvesting and membrane preparation as described above.
Membrane suspensions were diluted in binding buffer supplemented with 0.1% bovine serum albumin to yield an optimal membrane protein concentration so that ^125I-PYY (or alternative radioligand such as ^125I-NPY, ^125I-PYY3-36, or ^125I-[Leu^31Pro^34]PYY) bound by membranes in the assay was less than 10% of ^125I-PYY (or alternative radioligand) delivered to the sample (100,000 dpm/sample=0.08 nM for competition binding assays). ^125I-PYY (or alternative radioligand) and peptide competitors were also diluted to desired concentrations in supplemented binding buffer. Individual samples were then prepared in 96-well polypropylene microtiter plates by mixing 125I-PYY (25 μL) (or alternative radioligand), competing peptides or supplemented binding buffer (25 μL), and finally, membrane suspensions (200 μL). Samples were incubated in a 30° C. water bath with constant shaking for 120 min. Incubations were terminated by filtration over Whatman GF/C filters (pre-coated with 1% polyethyleneimine and air-dried before use), followed by washing with 5 mL of ice-cold binding buffer. Filter-trapped membranes were impregnated with MeltiLex solid scintillant (Wallac, Turku, Finland) and counted for ^125I in a Wallac Beta-Plate Reader. Alternatively, incubations were carried out in GF/C filter plates (pre-coated with 1% polyethyleneimine and air-dried before use), followed by vacuum filtration and three washes of 300 μL of ice-cold binding buffer. 50 μL of UltimaGold (Packard) scintillant were added and counted for ^125I in a Wallac MicroBeta Trilux. […]

SMILES | Ki [nM]
COCC(=O)NCc1ccc(Nc2nc3c(s2)CCCc2ccc(F)cc2-3)cc1 [Example 89, N1-{4-[(9-fluoro-5,6-dihydro-4H-benzo[6,7]cyclohepta-[d][1,3]thiazol-2-yl)amino]benzyl}-2-methoxyacetamide] | 9.2
COc1ccccc1-c1csc(N[C@H]2CC[C@H](CNS(C)(=O)=O)CC2)n1 [Example 91, trans-4-(2-Methoxy)phenyl-2-(4-methylsulfonylamino-methyl)-cyclohexylamino-1,3-thiazole hydrochloride] | 12.3
CCOC(=O)NC[C@H]1CC[C@H](Nc2nc(-c3ccccc3OC)cs2)CC1 [Example 92, trans-2-(4-Ethoxycarbonylaminomethyl)cyclohexylamino-4-(2-methoxy)phenylthiazole hydrogen chloride] | 912
COc1cccc(-c2csc(N[C@H]3CC[C@H](CNS(C)(=O)=O)CC3)n2)c1 [Example 93, trans-4-(3-Methoxy)phenyl-2-(4-methylsulfonylamino-methyl)-cyclohexylaminothiazole] | 150
CCOC(=O)NC[C@H]1CC[C@H](Nc2nc(-c3cccc(OC)c3)cs2)CC1 [Example 94, trans-2-(4-Ethoxycarbonylaminomethyl)cyclohexylamino-4-(3-methoxy)phenylthiazole hydrogen chloride] | 240
CS(=O)(=O)NC[C@H]1CC[C@H](Nc2nc(-c3ccccc3O)cs2)CC1 [Example 95, trans-4-(2-Hydroxy)phenyl-2-(4-methylsulfonylamino-methyl)-cyclohexylaminothiazole] | 106
COc1ccccc1-c1csc(N[C@H]2CC[C@H](CN(C=O)C(C)C)CC2)n1 [Example 96, trans-2-(4-(N-Isopropyl)formamidomethyl)cyclohexyl-amino-4-(2-methoxy)phenylthiazole hydrogen chloride] | 56
COCCN(C=O)C[C@H]1CC[C@H](Nc2nc(-c3ccccc3OC)cs2)CC1 [Example 97] | 335
COCCN(C=O)[C@H]1CC[C@H](CNc2nc(-c3ccccc3)cs2)CC1 [Example 98, trans-N-(2-Methoxyethyl)-N-(4-[(4-phenyl-1,3-thiazol-2-yl)amino]methylcyclohexyl)formamide] | 125
CC(C)N(C=O)[C@H]1CC[C@H](CNc2nc(-c3ccccc3)cs2)CC1 [Example 99, trans-N-Isopropyl-N-(4-[(4-phenyl-1,3-thiazol-2-yl)amino]methylcyclohexyl)formamide] | 45

The next lines start with the values.

Ki [nM] | SMILES
4.1 | O=S(=O)(NC[C@H]1CC[C@H](Nc2nc3c(s2)CCCc2ccc(F)cc2-3)CC1)N1CCOCC1 [Example 76, trans-1-Aza-9-fluoro-4,5-dihydro-2-(4-(4-morpholinyl)-sulfonylaminomethyl)cyclohexylamino-3-thia-benzo[e]azulene]
14.6 | COCCOC(=O)NC[C@H]1CC[C@H](Nc2nc3c(s2)CCCc2ccc(F)cc2-3)CC1 [Example 77, trans-1-Aza-9-fluoro-4,5-dihydro-2-(4-(2-methoxy)-ethoxy-carbonylaminomethyl)cyclohexylamino-3-thia-benzo[e]azulene]
6 | COc1ccc2c(c1)CCCc1sc(N[C@H]3CC[C@H](CNS(=O)(=O)N4CCOCC4)CC3)nc1-2 [Example 78, trans-N2-(4-(1-Morpholinylsulfonylaminomethyl)-cyclohexyl-8-methoxy-5,6-dihydro-4H-benzo[6,7]-cyclohepta[d][1,3]thiazol-2-amine hydrochloride]
62 | CC(=O)NC[C@H]1CC[C@H](Nc2nc3c(s2)CCCc2ccc(F)cc2-3)CC1 [Example 81, N1-({4-[(9-fluoro-5,6-dihydro-4H-benzo[6,7]-cyclohepta-[d][1,3]thiazol-2-yl)amino]cyclohexyl}-methyl)acetamide]
11.9 | CCCN(C=O)C[C@H]1CC[C@H](Nc2nc3c(s2)CCCc2ccc(F)cc2-3)CC1 [Example 82, trans-1-Aza-9-fluoro-4,5-dihydro-2-(4-(N-propyl-formamido)-methyl)cyclohexylamino-3-thia-benzo[e]-azulene]
12 | CC(C)N(C=O)C[C@H]1CC[C@H](Nc2nc3c(s2)CCCc2ccc(F)cc2-3)CC1 [Example 83, trans-1-Aza-9-fluoro-4,5-dihydro-2-(4-(N-isopropyl-formamido)methyl)cyclohexylamino-3-thia-benzo[e]-azulene]
40 | COCC(=O)N[C@H]1CC[C@H](CNc2nc3c(s2)CCOc2ccccc2-3)CC1 [Example 84, N1-{4-[(4,5-dihydrobenzo[2,3]oxepino[4,5-d][1,3]thiazol-2-ylamino)methyl]cyclohexyl}-2-methoxyacetamide]
68 | COCCN(C=O)[C@H]1CC[C@H](CNc2nc3c(s2)CCOc2ccccc2-3)CC1 [Example 86, N-{4-[(4,5-dihydrobenzo[2,3]oxepino[4,5-d][1,3]thiazol-2-ylamino)methyl]cyclohexyl}-N-(2-methoxyethyl)formamide]
86 | CCN(C=O)[C@H]1CC[C@H](CNc2nc3c(s2)CCOc2ccccc2-3)CC1 [Example 87, trans-1-Aza-2-(4-(n-(ethyl) formamido)cyclohexyl)methyl-amino-4,5-dihydro-6-oxa-3-thia-benzo[e]azulene]
36 | CCCN(C=O)[C@H]1CC[C@H](CNc2nc3c(s2)CCOc2ccccc2-3)CC1 [Example 88, N-{4-[(4,5-Dihydrobenzo[2,3]oxepino[4,5-d][1,3]-thiazol-2-ylamino)methyl]cyclohexyl}-N-propyl-formamide]
24 | CC(C)(C)OC(=O)NC[C@H]1CC[C@H](Nc2nc3c(s2)CCSc2ccccc2-3)CC1 [Example 100, tert-Butyl N-{[4-(4,5-Dihydrobenzo[2,3]thiepino[4,5-d][1,3]thiazol-2-ylamino)cyclohexyl]methyl}carbamate]
5.9 | CCN(CC)S(=O)(=O)NCCCCCCNc1nc2c(s1)CCSc1ccccc1-2 [Example 101, N′-[6-(4,5-Dihydrobenzo[2,3]thiepino[4,5-d][1,3]thiazol-2-ylamino)hexyl]-N,N-diethylsulfamide]
2.6 | CN(C)S(=O)(=O)NC[C@H]1CC[C@H](CNc2nc3c(s2)CCSc2ccc(F)cc2-3)CC1 [Example 106]

system: not given; assay: not given; details: not given

melting point [°C] | SMILES
55 to 57 | O=S(=O)(NCCCCCNc1nc2c(s1)CCCc1ccc(F)cc1-2)c1ccccc1F (as salt: HCl) [Example 3, 1-Aza-9-fluoro-2-(5-(2-fluorophenyl)sulfonylamino)-pentylamino-4,5-dihydro-3-thia-benzo[e]azulene]
